Measured values as given in ChEMBL document CHEMBL3046890, “Synthesis and Herbicidal Activity of Sulfonylureas; SL-950 and Its Related Compounds” (1995).

How the values were obtained:
Type in all cases: functional
Galinsoga quadriradiata [1] = assay: Post-emergence herbicidal activity against four-leafstage of Galinsoga quadriradiata assessed as efficacy of weed growth control at 750 g ai/ha under greenhouse conditions
Xanthium strumarium = assay: Post emergence herbicidal activity against Xanthium strumarium (cocklebur) assessed as inhibition of weed growth at 125 g ai/ha measured 22 to 37 days after compound application under greenhouse conditions; conditions: read-out: GI
Persicaria lapathifolia [2] = assay: Post-emergence herbicidal activity against three-leaf stage Persicaria lapathifolia assessed as efficacy of weed growth control at 40 g ai/ha under greenhouse conditions
Portulaca oleracea [3] = assay: Post-emergence herbicidal activity against three-leaf stage Portulaca oleracea assessed as efficacy of weed growth control at 750 g ai/ha under greenhouse conditions
Commelina communis [4] = assay: Post emergence herbicidal activity against two-leaf stage Commelina communis (Asiatic dayflower) assessed as efficacy of weed growth control at 750 g ai/ha under greenhouse conditions
Elymus repens = assay: Post-emergence herbicidal activity against three to four-leaf stage Elymus repens (couch grass) assessed as efficacy of weed growth control at 80 g ai/ha under greenhouse conditions
Portulaca oleracea [5] = assay: Post-emergence herbicidal activity against three-leaf stage Portulaca oleracea assessed as efficacy of weed growth control at 80 g ai/ha under greenhouse conditions
Chenopodium album = assay: Post emergence herbicidal activity against two-leaf stage Chenopodium album assessed as efficacy of weed growth control at 40 g ai/ha under greenhouse conditions
Cynodon dactylon [6] = assay: Post-emergence herbicidal activity against 15 cm leaf stage Cynodon dactylon assessed as efficacy of weed growth control at 750 g ai/ha under greenhouse conditions
Zea mays = assay: Post emergence phyototoxic activity against Zea mays (maize) plants assessed as inhibition of plant growth at 125 g ai/ha measured 22 to 37 days after compound application under greenhouse conditions; conditions: read-out: GI
Eleusine indica = assay: Post emergence herbicidal activity against three-leaf stage Eleusine indica assessed as efficacy of weed growth control at 60 g ai/ha under greenhouse conditions
Galinsoga quadriradiata [7] = assay: Post-emergence herbicidal activity against four-leafstage of Galinsoga quadriradiata assessed as efficacy of weed growth control at 40 g ai/ha under greenhouse conditions
Persicaria lapathifolia [8] = assay: Post-emergence herbicidal activity against three-leaf stage Persicaria lapathifolia assessed as efficacy of weed growth control at 750 g ai/ha under greenhouse conditions
Cynodon dactylon [9] = assay: Post-emergence herbicidal activity against 15 cm leaf stage Cynodon dactylon assessed as efficacy of weed growth control at 40 g ai/ha under greenhouse conditions
Echinochloa crus-galli [10] = assay: Post-emergence herbicidal activity against three-leaf stage Echinochloa crus-galli (barnyard grass) assessed as efficacy of weed growth control at 80 g ai/ha under greenhouse conditions
Cyperus rotundus [11] = assay: Post-emergence herbicidal activity against four to five-leaf stage Cyperus rotundus assessed as efficacy of weed growth control at 750 g ai/ha under greenhouse conditions
Cyperus microiria [12] = assay: Post-emergence herbicidal activity against three-leaf stage Cyperus microiria assessed as efficacy of weed growth control at 40 g ai/ha under greenhouse conditions
Capsella bursa-pastoris = assay: Post-emergence herbicidal activity against four-leafstage Capsella bursa-pastoris assessed as efficacy of weed growth control at 40 g ai/ha under greenhouse conditions
Cyperus rotundus [13] = assay: Post-emergence herbicidal activity against four to five-leaf stage Cyperus rotundus assessed as efficacy of weed growth control at 40 g ai/ha under greenhouse conditions
Avena fatua [14] = assay: Post-emergence herbicidal activity against three-leaf stage Avena fatua assessed as efficacy of weed growth control at 80 g ai/ha under greenhouse conditions
Senna tora [15] = assay: Post-emergence herbicidal activity against one-leaf stage Senna tora assessed as efficacy of weed growth control at 750 g ai/ha under greenhouse conditions
Commelina communis [16] = assay: Post emergence herbicidal activity against two-leaf stage Commelina communis (Asiatic dayflower) assessed as efficacy of weed growth control at 60 g ai/ha under greenhouse conditions
Sorghum halepense [17] = assay: Post emergence herbicidal activity against four to five-leaf stage Sorghum halepense (Johnson grass) assessed as efficacy of weed growth control at 40 g ai/ha under greenhouse conditions
Sorghum halepense [18] = assay: Post emergence herbicidal activity against four to five-leaf stage Sorghum halepense (Johnson grass) assessed as efficacy of weed growth control at 80 g ai/ha under greenhouse conditions
Sida spinosa [19] = assay: Post-emergence herbicidal activity against two-leaf stage Sida spinosa assessed as efficacy of weed growth control at 60 g ai/ha under greenhouse conditions
Avena fatua [20] = assay: Post emergence herbicidal activity against three-leaf stage Avena fatua assessed as efficacy of weed growth control at 750 g ai/ha under greenhouse conditions
Echinochloa crus-galli [21] = assay: Post emergence herbicidal activity against three-leaf stage Echinochloa crus-galli (barnyard grass) assessed as efficacy of weed growth control at 60 g ai/ha under greenhouse conditions
Setaria viridis [22] = assay: Post-emergence herbicidal activity against two-leaf stage Setaria viridis (green foxtail) assessed as efficacy of weed growth control at 40 g ai/ha under greenhouse conditions
Cynodon dactylon [23] = assay: Post-emergence herbicidal activity against 15 cm leaf stage Cynodon dactylon assessed as efficacy of weed growth control at 60 g ai/ha under greenhouse conditions
Cyperus rotundus [24] = assay: Post-emergence herbicidal activity against four to five-leaf stage Cyperus rotundus assessed as efficacy of weed growth control at 60 g ai/ha under greenhouse conditions
Commelina communis [25] = assay: Post emergence herbicidal activity against two-leaf stage Commelina communis (Asiatic dayflower) assessed as efficacy of weed growth control at 80 g ai/ha under greenhouse conditions
Cyperus microiria [26] = assay: Post-emergence herbicidal activity against three-leaf stage Cyperus microiria assessed as efficacy of weed growth control at 750 g ai/ha under greenhouse conditions
Amaranthus viridis = assay: Post-emergence herbicidal activity against three-leaf stage Amaranthus viridis assessed as efficacy of weed growth control at 40 g ai/ha under greenhouse conditions
Setaria viridis [27] = assay: Post-emergence herbicidal activity against two-leaf stage Setaria viridis (green foxtail) assessed as efficacy of weed growth control at 80 g ai/ha under greenhouse conditions
Sida spinosa [28] = assay: Post-emergence herbicidal activity against two-leaf stage Sida spinosa assessed as efficacy of weed growth control at 80 g ai/ha under greenhouse conditions
Portulaca oleracea [29] = assay: Post-emergence herbicidal activity against three-leaf stage Portulaca oleracea assessed as efficacy of weed growth control at 40 g ai/ha under greenhouse conditions
Cynodon dactylon [30] = assay: Post-emergence herbicidal activity against 15 cm leaf stage Cynodon dactylon assessed as efficacy of weed growth control at 80 g ai/ha under greenhouse conditions
Solanum nigrum [31] = assay: Post emergence herbicidal activity against four-leaf stage Solanum nigrum (black nightshade) assessed as efficacy of weed growth control at 40 g ai/ha under greenhouse conditions
Solanum nigrum [32] = assay: Post emergence herbicidal activity against four-leaf stage Solanum nigrum (black nightshade) assessed as efficacy of weed growth control at 750 g ai/ha under greenhouse conditions
Digitaria sanguinalis = assay: Post-emergence herbicidal activity against two-leaf stage Digitaria sanguinalis (hairy crabgrass) assessed as efficacy of weed growth control at 80 g ai/ha under greenhouse conditions
Senna tora [33] = assay: Post-emergence herbicidal activity against one-leaf stage Senna tora assessed as efficacy of weed growth control at 80 g ai/ha under greenhouse conditions

Q: Which results are given for `COc1cc(OC)nc(NC(=O)NS(=O)(=O)c2ncccc2C(=O)N(C)C)n1` [NICOSULFURON]?
A: Efficacy (Galinsoga quadriradiata [1]): 95%; inhibition of growth at 125 g/ha (Xanthium strumarium): 100%; Efficacy (Persicaria lapathifolia [2]): 70%; Efficacy (Portulaca oleracea [3]): 95%; Efficacy (Commelina communis [4]): 95%; Efficacy (Elymus repens): 95%; Efficacy (Portulaca oleracea [5]): 95%; Efficacy (Chenopodium album): 50%; Efficacy (Cynodon dactylon [6]): <50%; inhibition of growth at 125 g/ha (Zea mays): 0%; Efficacy (Eleusine indica): 95%; Efficacy (Galinsoga quadriradiata [7]): 70%; Efficacy (Persicaria lapathifolia [8]): 95%; Efficacy (Cynodon dactylon [9]): <50%; Efficacy (Echinochloa crus-galli [10]): 95%; Efficacy (Cyperus rotundus [11]): 50%; Efficacy (Cyperus microiria [12]): 95%; Efficacy (Capsella bursa-pastoris): 70%; Efficacy (Cyperus rotundus [13]): <50%; Efficacy (Avena fatua [14]): 95%; Efficacy (Senna tora [15]): <50%; Efficacy (Commelina communis [16]): 95%; Efficacy (Sorghum halepense [17]): 70%; Efficacy (Sorghum halepense [18]): 95%; Efficacy (Sida spinosa [19]): 50%; Efficacy (Avena fatua [20]): <50%; Efficacy (Echinochloa crus-galli [21]): 95%; Efficacy (Setaria viridis [22]): 95%; Efficacy (Cynodon dactylon [23]): <50%; Efficacy (Cyperus rotundus [24]): 70%; Efficacy (Commelina communis [25]): 95%; Efficacy (Cyperus microiria [26]): 95%; Efficacy (Amaranthus viridis): 95%; Efficacy (Setaria viridis [27]): 95%; Efficacy (Sida spinosa [28]): 70%; Efficacy (Portulaca oleracea [29]): 70%; Efficacy (Cynodon dactylon [30]): <50%; Efficacy (Solanum nigrum [31]): 50%; Efficacy (Solanum nigrum [32]): 95%; Efficacy (Digitaria sanguinalis): 95%; Efficacy (Senna tora [33]): 70%
